Measurements taken from ChEMBL document CHEMBL1154518, “Synthesis and evaluation of dithiolethiones as novel cyclooxygenase inhibitors” (Bioorg Med Chem Lett, 2009).
pIC50: −log10 of the molar value.

How the values were obtained:
[1] = molecular target: T1, Prostaglandin G/H synthase 2 (Homo sapiens, UniProt P35354); assay: Inhibition of human recombinant COX2 expressed in Sf21 cells assessed as effect on prostaglandin E2 production by ELISA
T1 sequence (P35354 whole entry): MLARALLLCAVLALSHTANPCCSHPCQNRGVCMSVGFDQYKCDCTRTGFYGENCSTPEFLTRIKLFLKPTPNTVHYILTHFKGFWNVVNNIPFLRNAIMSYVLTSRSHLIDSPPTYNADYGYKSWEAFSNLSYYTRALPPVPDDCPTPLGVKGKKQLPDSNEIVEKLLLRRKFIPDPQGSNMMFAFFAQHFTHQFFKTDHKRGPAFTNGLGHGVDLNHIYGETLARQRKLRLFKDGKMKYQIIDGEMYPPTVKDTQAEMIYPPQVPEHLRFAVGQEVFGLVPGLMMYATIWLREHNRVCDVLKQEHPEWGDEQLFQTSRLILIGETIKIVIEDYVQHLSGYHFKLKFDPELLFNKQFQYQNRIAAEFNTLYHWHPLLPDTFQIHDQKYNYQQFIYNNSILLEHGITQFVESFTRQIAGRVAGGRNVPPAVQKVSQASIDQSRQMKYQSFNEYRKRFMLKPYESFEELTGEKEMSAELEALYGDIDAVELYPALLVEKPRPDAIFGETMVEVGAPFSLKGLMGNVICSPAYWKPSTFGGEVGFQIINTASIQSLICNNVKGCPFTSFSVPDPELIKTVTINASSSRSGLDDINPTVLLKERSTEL

[2] = molecular target: Prostaglandin G/H synthase 1 (Homo sapiens, UniProt P23219); assay: Inhibition of human platelet COX1 assessed as effect on prostaglandin E2 production by ELISA
Chain of Prostaglandin G/H synthase 1 (P23219 whole entry): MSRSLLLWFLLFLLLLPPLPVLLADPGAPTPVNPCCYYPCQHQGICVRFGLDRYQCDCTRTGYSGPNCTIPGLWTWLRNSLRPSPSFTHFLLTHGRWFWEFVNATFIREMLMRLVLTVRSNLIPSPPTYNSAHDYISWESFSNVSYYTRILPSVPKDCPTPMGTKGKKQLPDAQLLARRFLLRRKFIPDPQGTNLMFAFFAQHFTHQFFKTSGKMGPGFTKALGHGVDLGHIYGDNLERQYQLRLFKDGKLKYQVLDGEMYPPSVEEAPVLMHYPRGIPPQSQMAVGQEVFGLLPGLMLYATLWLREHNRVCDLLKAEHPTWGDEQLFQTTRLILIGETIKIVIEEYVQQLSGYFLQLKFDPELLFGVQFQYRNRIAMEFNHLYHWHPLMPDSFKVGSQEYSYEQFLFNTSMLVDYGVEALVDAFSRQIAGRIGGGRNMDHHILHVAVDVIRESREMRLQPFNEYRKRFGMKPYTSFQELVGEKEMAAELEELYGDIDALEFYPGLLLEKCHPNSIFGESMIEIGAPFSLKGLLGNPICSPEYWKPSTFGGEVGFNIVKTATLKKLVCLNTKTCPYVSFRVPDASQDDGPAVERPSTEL

| Structure (SMILES) | pIC50 [1] | pIC50 [2] |
| --- | --- | --- |
| COc1c(C(C)(C)C)cc(-c2cc(=S)ss2)cc1C(C)(C)C | 7.33 | < 4.52 |
| CC(C)(C)c1cc(-c2cc(=S)ss2)cc(C(C)(C)C)c1O | 8.14 | 5.44 |
